Measured values as given in US10117864B2, “Substituted N-bicyclo-2-aryl-quinolin-4-carboxamides and use thereof” (BAYER PHARMA AKTIENGESELLSCHAFT, priority 2015, dated 2018).

Target: human FP receptor (Homo sapiens (Human), UniProt P43088)
Sequence (P43088 whole entry): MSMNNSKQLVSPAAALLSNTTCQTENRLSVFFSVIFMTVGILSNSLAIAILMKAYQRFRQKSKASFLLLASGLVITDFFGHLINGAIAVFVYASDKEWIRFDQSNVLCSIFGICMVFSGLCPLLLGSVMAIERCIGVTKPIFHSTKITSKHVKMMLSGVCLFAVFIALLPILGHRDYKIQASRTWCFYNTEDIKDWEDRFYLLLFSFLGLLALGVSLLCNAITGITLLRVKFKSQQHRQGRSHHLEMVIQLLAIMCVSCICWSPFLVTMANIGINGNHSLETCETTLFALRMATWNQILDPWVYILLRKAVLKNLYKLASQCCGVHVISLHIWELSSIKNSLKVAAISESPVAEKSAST
Assay: In vitro test of inhibition of human FP receptor activity (PGF2α-induced calcium flux in FP-expressing CHEM1 cells)
Assay type: cell-based
Details: PGF2α-induced (3 nM) calcium flux, some as mean values from multiple independent determinations
Description: • CRTH2 chemoattractant receptor-homologous molecule expressed on T helper type 2 cells • DMEM Dulbecco's modified Eagle's medium • DMSO dimethyl sulfoxide • DP PGD2 receptor • EC50 half-maximum effective concentration • Em emission • EP PGE2 receptor • Ex excitation • from Company (source) • FCS fetal calf serum • FP PGF2α receptor • HEPES 2-[4-(2-hydroxyethyl)piperazin-1-yl]ethanesulfonic acid • IC50 half-maximum inhibitory concentration • IP PGI2 receptor • MES 2-(N-morpholino)ethanesulfonic acid • Pen/Strep penicillin/streptomycin • PGD2 prostaglandin D2 • PGE2 prostaglandin E2 • PGF2α prostaglandin F2α • PGI2 prostaglandin I2 • TC tissue culture • TP thromboxane A2 receptor • Tris tris(hydroxymethyl)aminomethane • v/v volume to volume ratio (of a solution) • w/w weight to weight ratio (of a solution) B-1. In Vitro Test of Inhibition of Human FP Receptor Activity
For the characterization of test substances in respect of FP antagonism, PGF2α-induced calcium flux in FP-expressing CHEM1 cells (Millipore, HTS093C) was used.
Prior to the measurement, the medium is replaced by 30 μl of Fluo-8 AM loading buffer [calcium-free Tyrode (130 mM NaCl, 5 mM KCl, 20 mM HEPES, 1 mM MgCl2, 4.8 mM NaHCO3, pH 7.4), 2 mM CaCl2, 1× SmartBlock (from CANDOR Bioscience GmbH), 4.5 mM Probenecid, 5 μM Fluo-8 AM, 0.016% Pluronic®, 0.04% Brilliant black] and incubated at 37° C./5% CO2 for 30 minutes. […] 10 μl of the prediluted substance solution are added to the Fluo-8-laden cells and incubated at 37° C./5% CO2 for 10 minutes. The FP receptor is activated by adding 20 μl of 3 nM (final concentration) PGF2α in calcium-free Tyrode/2 mM CaCl2/0.04% Brilliant black, and the calcium flux is determined by measuring the fluorescence at ex. 470 nm/[…].
Table 1 below lists the IC50 values from this assay for individual working examples of the invention (some as mean values from multiple independent individual determinations): […]
In the case of `O=C(NC12CCC(C(=O)O)(CC1)CC2)c1c(Cl)c(-c2ccccc2)nc2ccc(I)cc12` [Example 32, 4-{[(3-Chloro-6-iodo-2-phenylquinolin-4-yl)carbonyl]amino}bicyclo[2.2.2]octane-1-carboxylic acid], the IC50 is reported as 22 nM.
With `O=C(NC12CCC(C(=O)O)(CC1)CC2)c1c(C2CC2)c(-c2ccccc2)nc2ccc(I)cc12` [Example 33, 4-{[(3-Cyclopropyl-6-iodo-2-phenylquinolin-4-yl)carbonyl]amino}bicyclo[2.2.2]octane-1-carboxylic acid] the IC50 was 51 nM.
With `Cc1c(-c2ccccc2)nc2ccc(C(F)(F)F)cc2c1C(=O)NC12CCC(C(=O)O)(CC1)CC2` [Example 34, 4-({[3-Methyl-2-phenyl-6-(trifluoromethyl)quinolin-4-yl]carbonyl}amino)bicyclo[2.2.2]octane-1-carboxylic acid] the IC50 was 505 nM.
Compound `O=C(NC12CCC(C(=O)O)(CC1)CC2)c1c(O)c(-c2ccccc2)nc2ccc(Br)cc12` [Example 35, 4-{[(6-Bromo-3-hydroxy-2-phenylquinolin-4-yl)carbonyl]amino}bicyclo[2.2.2]octane-1-carboxylic acid] has an IC50 of 430 nM.
Work on `Cc1c(-c2ccccc2)nc2ccc(Br)cc2c1C(=O)NC12CCC(C(N)=O)(CC1)CC2` [Example 36, 6-Bromo-N-(4-carbamoylbicyclo[2.2.2]oct-1-yl)-3-methyl-2-phenylquinoline-4-carboxamide] yielded an IC50 of 553 nM.
For `Cc1c(-c2ccccc2)nc2ccc(Br)cc2c1C(=O)NC12CC(C(=O)O)(C1)C2` [Example 37, 3-{[(6-Bromo-3-methyl-2-phenylquinolin-4-yl)carbonyl]amino}bicyclo[1.1.1]pentane-1-carboxylic acid], the IC50 was 723 nM.
`Cc1c(-c2ccccc2)nc2ccc(I)cc2c1C(=O)NC12CCC(C(=O)O)(CC1)C2` [Example 38, 4-{[(6-Iodo-3-methyl-2-phenylquinolin-4-yl)carbonyl]amino}bicyclo [2.2.1]heptane-1-carboxylic acid] showed an IC50 of 1280 nM.
With `Cc1c(-c2ccccc2)nc2ccc(Br)cc2c1C(=O)NC12CCCC(C(=O)O)(CC1)CC2` [Example 39, 5-{[(6-Bromo-3-methyl-2-phenylquinolin-4-yl)carbonyl]amino}bicyclo[3.2.2]nonane-1-carboxylic acid] the IC50 was 230 nM.
Work on `O=C(NC12CCCC(C(=O)O)(CC1)CC2)c1c(Cl)c(-c2ccccc2)nc2ccc(Br)cc12` [Example 40, 5-{[(6-Bromo-3-chloro-2-phenylquinolin-4-yl)carbonyl]amino}bicyclo[3.2.2]nonane-1-carboxylic acid] yielded an IC50 of 195 nM.
In the case of `O=C(NC12CCCC(C(=O)O)(CC1)CC2)c1c(Cl)c(-c2ccccc2)nc2ccc(I)cc12` [Example 41, 5-{[(3-Chloro-6-iodo-2-phenylquinolin-4-yl)carbonyl]amino}bicyclo[3.2.2]nonane-1-carboxylic acid], the IC50 is reported as 48 nM.
For `O=C(NC12CCCC(C(=O)O)(CC1)CC2)c1c(C2CC2)c(-c2ccccc2)nc2ccc(I)cc12` [Example 42, 5-{[(3-Cyclopropyl-6-iodo-2-phenylquinolin-4-yl)carbonyl]amino}bicyclo[3.2.2]nonane-1-carboxylic acid], the IC50 was 33 nM.
`Cc1c(-c2ccccc2)nc2ccc(Br)cc2c1C(=O)NC12C3C4C1C1C2C3C41C(=O)O` (stereo not shown) [Example 43, 4-{[(6-Bromo-3-methyl-2-phenylquinolin-4-yl)carbonyl]amino}cubane-1-carboxylic acid] showed an IC50 of 198 nM.
Work on `Cc1c(-c2ccccc2)nc2ccc(I)cc2c1C(=O)NC12C3C4C1C1C2C3C41C(=O)O` (stereo not shown) [Example 44, 4-{[(6-Iodo-3-methyl-2-phenylquinolin-4-yl)carbonyl]amino}cubane-1-carboxylic acid] yielded an IC50 of 73 nM.
Compound `O=C(NC12C3C4C1C1C2C3C41C(=O)O)c1c(Cl)c(-c2ccccc2)nc2ccc(Br)cc12` (stereo not shown) [Example 45, 4-{[(6-Bromo-3-chloro-2-phenylquinolin-4-yl)carbonyl]amino}cubane-1-carboxylic acid] has an IC50 of 161 nM.
For `Cc1c(-c2cc(Br)cs2)nc2ccc(Br)cc2c1C(=O)NC12CCC(C(=O)O)(CC1)CC2` [Example 52, 4-({[6-Bromo-2-(4-bromo-2-thienyl)-3-methylquinolin-4-yl]carbonyl}amino)bicyclo[2.2.2]octane-1-carboxylic acid], the IC50 was 58 nM.
With `Cc1ccc(-c2nc3ccc(Br)cc3c(C(=O)NC34CCC(C(=O)O)(CC3)CC4)c2C)s1` [Example 53, 4-({[6-Bromo-3-methyl-2-(5-methyl-2-thienyl)quinolin-4-yl]carbonyl}amino)bicyclo[2.2.2]octane-1-carboxylic acid] the IC50 was 235 nM.
In the case of `Cc1c(-c2ccc(Cl)s2)nc2ccc(Br)cc2c1C(=O)NC12CCC(C(=O)O)(CC1)CC2` [Example 54, 4-({[6-Bromo-2-(5-chloro-2-thienyl)-3-methylquinolin-4-yl]carbonyl}amino)bicyclo[2.2.2]octane-1-carboxylic acid], the IC50 is reported as 240 nM.
Compound `Cc1c(-c2ccc(Br)s2)nc2ccc(Br)cc2c1C(=O)NC12CCC(C(=O)O)(CC1)CC2` [Example 55, 4-({[6-Bromo-2-(5-bromo-2-thienyl)-3-methylquinolin-4-yl]carbonyl}amino)bicyclo[2.2.2]octane-1-carboxylic acid] has an IC50 of 383 nM.
`C#Cc1ccc2nc(-c3ccccc3)c(C)c(C(=O)NC34CCC(C(=O)O)(CC3)CC4)c2c1` [Example 56, 4-{[(6-Ethynyl-3-methyl-2-phenylquinolin-4-yl)carbonyl]amino}bicyclo[2.2.2]octane-1-carboxylic acid] gave an IC50 of 148 nM.
`Cc1c(-c2ccccc2)nc2ccc(Br)cc2c1C(=O)NC12CCC(C(=O)O)(CC1)C(=O)C2` [Example 57, 4-{[(6-Bromo-3-methyl-2-phenylquinolin-4-yl)carbonyl]amino}-2-oxobicyclo[2.2.2]octane-1-carboxylic acid] showed an IC50 of 637 nM.
`Cc1c(-c2ccccc2)nc2ccc(Br)cc2c1C(=O)NC12CCC(C(=O)O)(CC1)C(F)(F)C2` [Example 58, 4-{[(6-Bromo-3-methyl-2-phenylquinolin-4-yl)carbonyl]amino}-2,2-difluorobicyclo[2.2.2]octane-1-carboxylic acid] gave an IC50 of 668 nM.
`Cc1c(-c2ccccc2)nc2ccc(Br)cc2c1C(=O)NC12CCC(C(=O)O)(CC1=O)CC2=O` [Example 63, 4-{[(6-Bromo-3-methyl-2-phenylquinolin-4-yl)carbonyl]amino}-3,5-dioxobicyclo [2.2.2]octane-1-carboxylic acid] showed an IC50 of 82 nM.
With `Cc1c(-c2ccccc2)nc2ccc(I)cc2c1C(=O)NC12CCC(C(=O)O)(CC1)OC2` [Example 64, 4-{[(6-Iodo-3-methyl-2-phenylquinolin-4-yl)carbonyl]amino}-2-oxabicyclo [2.2.2]octane-1-carboxylic acid] the IC50 was 762 nM.
In the case of `Cc1c(-c2ccccc2)nc2ccc(Br)cc2c1C(=O)N[C@@H]1[C@@H]2CC[C@H]1C[C@H](C(=O)O)C2` [Example 65, (3-exo,8-anti)-8-{[(6-Bromo-3-methyl-2-phenylquinolin-4-yl)carbonyl]amino}bicyclo[3.2.1]octane-3-carboxylic acid], the IC50 is reported as 824 nM.
Compound `N#Cc1c(-c2ccccc2)nc2ccc(Br)cc2c1C(=O)NC12CCC(C(=O)O)(CC1)CC2` [Example 66, 4-{[(6-Bromo-3-cyano-2-phenylquinolin-4-yl)carbonyl]amino}bicyclo[2.2.2]octane-1-carboxylic acid] has an IC50 of 762 nM.
`C=Cc1c(-c2ccccc2)nc2ccc(Br)cc2c1C(=O)NC12CCC(C(=O)O)(CC1)CC2` [Example 67, 4-{[(6-Bromo-2-phenyl-3-vinylquinolin-4-yl)carbonyl]amino}bicyclo[2.2.2]octane-1-carboxylic acid] gave an IC50 of 440 nM.

System: not given
Assay: not given
Details: unstable molecule, rearranged enzymatically in lung, liver and kidney to 15-ketodihydro-PGF2α; cited from earlier work
In the case of Prostaglandin F2alpha [PGF2α], the t1/2 is listed as less than 1 min.

System: not given
Assay: not given
Details: eliminated renally; cited from earlier work
For Bleomycin, the half-life is listed as “about 3 hours”.
